# According to ChEMBL document CHEMBL1125272, “Synthetic approaches to the guanosine and xanthosine analogues 5-amino-3-beta-D-ribofuranosylpyrazolo[3,4-e][1,3]oxazin-7-one and 3-beta-D-ribofuranosylpyrazolo[3,4-e][1,3]oxazine-5,7-dione and studies of their antitumor potential” (J Med Chem, 1991):
# Tested on: L1210
# Experiment: Capacity to inhibit tumor cells in vitro using L1210 murine leukemia cells
# Type: functional, cell-based
# Details: Mus musculus
row,IC50 [µM],Structure (SMILES)
1,0.2,O=c1[nH]c(=O)c2[nH]nc([C@@H]3O[C@H](CO)[C@@H](O)[C@H]3O)c2o1
2,100,NC1=NC(=O)C2N=NC([C@@H]3O[C@H](CO)[C@@H](O)[C@H]3O)=C2O1 (some centres not stated)
